# Source: PubChem BioAssay AID1959 (Broad Institute, 2009)
# Calls of active or inactive are those of the source.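 The calls were made as follows: active = growth-inhibition EC50 no more than tenfold above the top tested dose; inconclusive = flat fit between 30% and 70% inhibition, or unreliable fit; inactive = EC50 more than tenfold above the top tested dose.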
# System: E. coli NEB5alpha growth, BacTiter-Glo luminescence, 4 h
# Assay: antibacterial activity against E. coli NEB5alpha – luminescence, counter-screen for MEX-5/POS-1 RNA-binding inhibitor project, dose response (AID 1959);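 also: pUC19-transformed ampicillin-resistant cells grown in LB with ampicillin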
row,SMILES,EC50
1,N=c1c(S(=O)(=O)c2ccc(Cl)cc2)cc2c(=O)n3ccccc3nc2n1C1CCCC1,> 11 µM (inactive)
2,COc1ccc(C2C(C#N)=C(N)OC3=C2C(=O)CCC3)c(OC)c1OC (stereo unspecified),> 11 µM (inactive)
3,CC1(C)CC(=O)C2=C(C1)OC(N)=C(C#N)C2c1ccccc1OC(=O)N1CCOCC1 (stereo unspecified),> 11 µM (inactive)
4,CC1=C(C#N)C(=O)OC(C)(C)C1,> 11 µM (inactive)
5,COc1ccc2c(c1)c1nc3ccccc3nc1n2CCCN1C(=O)c2ccccc2C1=O,> 11 µM (inactive)
6,N=c1c(C(=O)NC2CCCCC2)cc2c(=O)n3ccccc3nc2n1CCc1ccccc1,> 11 µM (inactive)
7,COc1cc(/C=C2/C(=O)NN(c3cccc(C)c3)C2=O)cc([N+](=O)[O-])c1O,> 11 µM (inactive)
8,Cc1ccc(N/N=C/c2c(C)c(C#N)c(=O)n(C)c2O)cc1C,> 11 µM (inactive)
9,CC(=Nc1ccc(Br)cc1)c1sc2ccccc2c1O,> 11 µM (inactive)
10,CCOc1cc(/C=C2\C(=O)NN(c3ccccc3)C2=O)cc([N+](=O)[O-])c1O,> 11 µM (inactive)
11,NS(=O)(=O)c1ccc(-c2cccc(/C=C3\SC(=O)NC3=O)c2)cc1,> 11 µM (inactive)
12,COc1ccc(/C=C(\C#N)C(=O)NCC2CCCO2)cc1OC (stereo unspecified),> 11 µM (inactive)
13,O=C/C(=C\Nc1ccccn1)c1nc2ccccc2o1,> 11 µM (inactive)
14,CC(C)(C)c1ccc(OCc2ccc(C(=O)Nc3cccnc3)o2)cc1,> 11 µM (inactive)
15,O=C1N=C(N2C=CC(=C3C=CNC=C3)C=C2)/C(=C/N=NC(=O)c2ccccc2O)S1,> 11 µM (inactive)
16,O=c1c(O)cccc2cc(O)c(O)c(O)c12,> 11 µM (inactive)
17,C=CCN1C(=O)NC(=O)/C(=C/c2c(CCN(C)C(=O)c3ccccc3)cc3c(c2OC)OCO3)C1=O,> 11 µM (inactive)
18,O=[N+]([O-])c1cccc(/C=C/c2nc(C=Nc3ccccc3)c(O)o2)c1,> 11 µM (inactive)
19,CCc1ccc(/C=C2/SC(=S)N(CCC(=O)Nc3cccnc3)C2=O)cc1,> 11 µM (inactive)
20,CC1(OC(=O)c2cccs2)C(=O)C=C2C=C(c3ccc(C#N)cc3)OC=C2C1=O (stereo unspecified),> 11 µM (inactive)
21,CCN(CC)CCCNC(=O)CCC(=O)NNc1nc2ccccc2c2nc(C)nn12,> 11 µM (inactive)
22,N/C(=N\N=C/c1ccc(-c2ccc(O)c(C(=O)O)c2)o1)N[N+](=O)[O-],> 11 µM (inactive)
23,O=C(Nc1cc(=O)[nH]c2ncnn12)c1ccc(Cl)cc1Cl,> 11 µM (inactive)
24,O=C(CC1Nc2ccccc2NC1=O)Nc1cc(Cl)cc(Cl)c1 (stereo unspecified),> 11 µM (inactive)

row,SMILES,EC50
1,COC/C=C/C1=CC2=CC(=O)C(C)(OC(=O)C3CCCC3)C(=O)C2=CO1 (stereo unspecified),> 11 µM (inactive)
2,c1ccc(-c2cn3nc4c(nc3n2)CCCC4)cc1,> 11 µM (inactive)
3,COc1ccc(C(=O)/C=C/c2ccc(-c3ccccc3)cc2)cc1CSCC(=O)O,> 11 µM (inactive)
4,CC1(OC(=O)CCc2ccccc2)C(=O)C=C2C=C(C3CC3)OC=C2C1=O (stereo unspecified),> 11 µM (inactive)
5,FC(F)(F)c1cc(C(F)(F)F)n2nc(-c3sccc3-n3cccc3)cc2n1,> 11 µM (inactive)
6,CNCc1ccccc1Sc1ccc(O)c(O)c1,> 11 µM (inactive)
7,CCCCC1=CC2=CC(=O)C(C)(OC(=O)c3cnc4ccccc4n3)C(=O)C2=CO1 (stereo unspecified),> 11 µM (inactive)
8,CN1CC=C2C(C#N)=C(N)C(C#N)(C#N)[C@H](c3cccc(Cl)c3)C2C1 (stereo partly specified),> 11 µM (inactive)
9,CSc1sccc1/C=C(/C#N)C(=O)c1ccco1,> 11 µM (inactive)
10,CN(C)C1C(=O)C(C(N)=O)=C(O)C2(O)C(=O)C3=C(O)c4c(O)cccc4C(C)(O)C3C(O)C12 (stereo unspecified),8.68 µM
11,Cc1cccc(NC(=O)c2sc3nc(-c4ccccc4)cn3c2C)n1,> 11 µM (inactive)
12,Cc1nnc(N2C(=O)C(O)=C(C(=O)c3ccco3)C2c2ccc(F)cc2)s1 (stereo unspecified),> 11 µM (inactive)
13,Cc1ccc2nc3c(cc(C(=O)NCC4CCCO4)c(=N)n3C3CCCC3)c(=O)n2c1 (stereo unspecified),> 11 µM (inactive)
14,CCn1cc(C=C2C(=O)NC(=O)NC2=O)c2ccccc21,> 11 µM (inactive)
15,CCOC(CNC(=O)CCc1c(C)nc2nc(C)nn2c1C)OCC,> 11 µM (inactive)
16,Cc1ccc(Cn2c(=N)c(C(=O)NCC3CCCO3)cc3c(=O)n4ccccc4nc32)cc1 (stereo unspecified),> 11 µM (inactive)
17,N#Cc1cc(NC(=O)c2ccc(F)cc2)c(=O)n2c1[nH]c1ccccc12,> 11 µM (inactive)
18,CCn1c(SCc2ccc(C)cc2)nnc1C1CCN(S(=O)(=O)c2ccc(OC)cc2)CC1,> 11 µM (inactive)
19,CCC(C)n1c(=N)c(C#N)cc2c(=O)n3cc(C)ccc3nc21 (stereo unspecified),> 11 µM (inactive)
20,Cc1cccc(C(=O)NCCCNC(=O)c2cccc(C)c2)c1,> 11 µM (inactive)
21,O=C(N/N=C\c1c(O)ccc2ccccc12)c1cncc(Br)c1,> 11 µM (inactive)
22,CCOC(=O)c1cc(=O)n2nc(-c3ccccc3F)nc2s1,> 11 µM (inactive)
23,O=C1NC(=O)C(=Cc2ccc(-c3ccc(S(=O)(=O)N4CCOCC4)cc3)o2)C(=O)N1,> 11 µM (inactive)
24,COC(=O)c1c(Cl)c2n3ccccc3c(C)c(-c3ccccc3)c-2c1C(=O)OC,> 11 µM (inactive)

row,SMILES,EC50
1,Cc1nc2sc(-c3ccccc3)cc2c(=O)n1N,> 11 µM (inactive)
2,C/C(=N/N=C(\C)c1ccccc1O)c1ccccc1O,> 11 µM (inactive)
3,CCc1c(C)nc(SCC(=O)NNC(=O)c2ccco2)[nH]c1=O,> 11 µM (inactive)
4,O=C(O)c1ccc2c(c1)C(=O)/C(=C\c1ccco1)C2=O,> 11 µM (inactive)
5,CN1C(=O)c2cccc3c(N)ccc(c23)C1=O,> 11 µM (inactive)
6,Oc1cc2c(cc1O)C(c1ccccc1)CNCC2 (stereo unspecified),> 11 µM (inactive)
7,CCCCN(C)C(=O)c1cccc(OC2CCN(CC(C)(C)C)CC2)c1,> 11 µM (inactive)
8,Cc1ccccc1NC(=O)CN1C(=O)S/C(=C\c2cccn2-c2cccc(C(=O)O)c2)C1=O,> 11 µM (inactive)
9,COc1cc(C2C(C#N)=C(N)OC3=C2C(=O)CCC3)cc2c1OCO2 (stereo unspecified),> 11 µM (inactive)
10,C=CCOc1ccc(C2OC34CCCCC3C(C#N)(C#N)C2(C#N)C(=N)O4)cc1 (stereo unspecified),> 11 µM (inactive)
11,CN1CCc2c(sc(NC(=O)c3ccc4ccccc4c3)c2C(N)=O)C1,> 11 µM (inactive)
12,O=C1CSC(=S)N1/N=C/c1ccc(O)c(O)c1O,> 11 µM (inactive)
13,COC(=O)CCCC1=CC2=CC(=O)C(C)(OC(=O)C3CCCC3)C(=O)C2=CO1 (stereo unspecified),> 11 µM (inactive)
14,Nc1ccc2c(c1)-c1ccccc1S(=O)(=O)N2,> 11 µM (inactive)
15,Cc1c(O)ccc(-c2n[nH]c(C(=O)O)c2-c2nc3ccccc3s2)c1O,> 11 µM (inactive)
16,CN1C(=O)C(=Cc2ccc(Sc3ccccc3)o2)C(=O)N(C)C1=S,> 11 µM (inactive)
17,O=C(NNC(=O)c1ccc2ccccc2c1O)c1ccccc1Cl,> 11 µM (inactive)
18,CN=C1S/C(=C\c2ccc(O)c(OC)c2)C(=O)N1C,> 11 µM (inactive)
19,O=C(Nc1nccs1)c1ccc(-c2ccc([N+](=O)[O-])cc2)o1,> 11 µM (inactive)
20,N#CC1=C(N)OC2=C(C(=O)CCC2)C1c1cc2c(cc1Br)OCO2 (stereo unspecified),> 11 µM (inactive)
21,O=C1c2ccccc2S(=O)(=O)c2cc(N3CCC(C(=O)N4CCCCC4)CC3)ccc21,> 11 µM (inactive)
22,O=C(/C=C/c1c(Cl)cccc1Cl)N1CCOCC1,> 11 µM (inactive)
23,Cc1cc(CC(C)C)n(-c2nc3ccccc3c(=O)n2OCc2ccccc2)n1,> 11 µM (inactive)
24,COc1ccc(N2C(=O)C(Cl)=C(Nc3ccccc3O)C2=O)cc1,> 11 µM (inactive)

row,SMILES,EC50
1,COc1cccc(/C=N/NC(=O)c2ccc(=O)[nH]n2)c1O,> 11 µM (inactive)
2,CCCNC(=O)c1ccc2c(=O)c(O)c(-c3ccc(F)cc3)[nH]c2c1,> 11 µM (inactive)
3,Cc1cc(C)c2c(c1)C1C=CCC1C(c1ccc(S(=O)(=O)N3CCOCC3)cc1)N2 (stereo unspecified),> 11 µM (inactive)
4,Brc1cc2c(cc1C1Nc3ccccc3C3C=CCC31)OCO2 (stereo unspecified),> 11 µM (inactive)
5,O=c1[nH]c2ccccc2nc1/C=C/c1ccc(F)cc1,> 11 µM (inactive)
6,N#CC1=C(N)OC2=C(C(=O)CCC2)[C@]12C(=O)N(CC(N)=O)c1ccccc12,> 11 µM (inactive)
7,Cc1nn(-c2ccccc2)c(N2CCCC2)c1/C=C1\N=C(c2ccc(F)cc2)OC1=O,> 11 µM (inactive)
8,COc1ccc(OC)c(N=Cc2c(O)n(Cc3ccccc3)c(=S)[nH]c2=O)c1,> 11 µM (inactive)
9,COC(=O)CNc1cccc(C(F)(F)F)c1,> 11 µM (inactive)
10,CN(C)C1=NC(=O)/C(=C/c2ccc(-c3ccc(S(N)(=O)=O)cc3)o2)S1,> 11 µM (inactive)
11,O=C(O)c1ccc(-n2cccc2/C=C2/NC(=O)N(c3ccccc3)C2=O)cc1,> 11 µM (inactive)
12,Cc1nc2c3ccccc3nc(NNC(=O)CCC(=O)N3CCCC(C)C3)n2n1 (stereo unspecified),> 11 µM (inactive)
13,CCOc1ccc(Br)cc1S(=O)(=O)NC(=O)c1ccccc1,> 11 µM (inactive)
14,c1coc(-c2nnc(-c3ccco3)nn2)c1,> 11 µM (inactive)
15,COc1ccc(C2C(C#N)=C(/N=C/N3CCOCC3)OC3=C2C(=O)CC(C)(C)C3)cc1OC (stereo unspecified),> 11 µM (inactive)
16,CCC1=NN2C(=N)/C(=C\c3ccc(SCc4ccco4)o3)C(=O)N=C2S1,> 11 µM (inactive)
17,COc1ccc(N2C(=O)/C(=C/c3ccc(C)o3)C(=O)NC2=S)cc1,> 11 µM (inactive)
18,O=C(O)CCCCCn1c(SCC(=O)c2ccc(O)c(O)c2)nc2ccsc2c1=O,> 11 µM (inactive)
19,COCCNC(=O)C1Nc2ccc(C(F)(F)F)cc2C2C=CCC12 (stereo unspecified),> 11 µM (inactive)
20,CC(=O)c1ccc(C(=O)Nc2sc3c(c2C(N)=O)CCN(Cc2ccccc2)C3)cc1,> 11 µM (inactive)
21,COC(=O)/C(C#N)=C/c1c(Oc2cc(C)cc(C)c2)nc2c(C)cccn2c1=O,> 11 µM (inactive)
22,Cc1cc(=O)nc2c3ccccc3n(CC(=O)Nc3ccccc3Br)n12,> 11 µM (inactive)
23,CCc1cc(=O)oc2cc(C)cc(OC(C)C(=O)O)c12 (stereo unspecified),> 11 µM (inactive)
24,Cc1c(N=C2Nc3cccc4cccc2c34)c(=O)n(-c2ccccc2)n1C,> 11 µM (inactive)
